In ChEMBL document CHEMBL5380875, “Discovery of a Potent and Oral Available Complex I OXPHOS Inhibitor That Abrogates Tumor Growth and Circumvents MEKi Resistance” (J Med Chem, 2023):
The source made the active and inactive calls. No cut-off for these calls is given here.

What was measured:
NCI-H460 [1] = assay: Inhibition of mitochondrial complex II in human NCI-H460 cells at 1 uM incubated for 12 hrs by seahorse XF96 metabolic flux analyzer relative to control; format: cell-based
NCI-H460 [2] = assay: Inhibition of mitochondrial complex I NADH-ubiquinone oxidoreductase in human NCI-H460 cells at 1 uM incubated for 12 hrs by seahorse XF96 metabolic flux analyzer relative to control; format: cell-based
NCI-H460 [3] = assay: Inhibition of mitochondrial complex IV in human NCI-H460 cells at 1 uM incubated for 12 hrs by seahorse XF96 metabolic flux analyzer relative to control; format: cell-based
NCI-H460 [4] = assay: Antiproliferative activity against human NCI-H460 cells with high-OXPHOS assessed as reduction in cell viability incubated for 5 days by CellTiter 96 cell proliferation assay; format: functional, cell-based; conditions: NCI-H460, 120 h
NCI-H358 [5] = assay: Antiproliferative activity against human NCI-H358 cells with low-OXPHOS assessed as reduction in cell viability incubated for 5 days by CellTiter 96 cell proliferation assay; format: functional, cell-based; conditions: NCI-H358, 120 h
NCI-H460 [6] = assay: Inhibition of mitochondrial complex I NADH-ubiquinone oxidoreductase in human NCI-H460 cells assessed as reduction in NAD+/NADH ratio at 1 uM incubated for 12 hrs by WST-8 method relative to control; format: cell-based
NCI-H460 [7] = assay: Inhibition of mitochondrial complex III in human NCI-H460 cells at 1 uM incubated for 12 hrs by seahorse XF96 metabolic flux analyzer relative to control; format: cell-based
NCI-H358 [8] = assay: Inhibition of colony formation in human NCI-H358 cells low-OXPHOS at 250 to 1000 nM incubated for 7 days by crystal violet staining based analysis; format: functional, cell-based; conditions: dose 250-1000 nM, time 7.0 day
NCI-H460 [9] = assay: Inhibition of mitochondrial complex I NADH-ubiquinone oxidoreductase in human NCI-H460 cells assessed as reduction in NAD+/NADH ratio at 1 uM incubated for 12 hrs by WST-8 method; format: cell-based
NCI-H460 [10] = assay: Inhibition of mitochondrial complex I NADH-ubiquinone oxidoreductase in human NCI-H460 cells assessed as reduction in oxygen consumption rate at 1 uM incubated for 12 hrs in presence of medium supplemented with pyruvate by seahorse XF96 metabolic flux analyzer; format: cell-based
NCI-H460 [11] = assay: Inhibition of colony formation in human NCI-H460 cells with high-OXPHOS incubated for 7 days by crystal violet staining based analysis; format: functional, cell-based; conditions: dose 250-1000 nM, time 7.0 day
NCI-H441 [12] = assay: Antiproliferative activity against human NCI-H441 cells with high-OXPHOS assessed as reduction in cell viability incubated for 5 days by CellTiter 96 cell proliferation assay; format: functional, cell-based; conditions: NCI-H441, 120 h
NCI-H441 [13] = assay: Inhibition of colony formation in human NCI-H441 cells with high-OXPHOS incubated for 7 days by crystal violet staining based analysis; format: functional, cell-based; conditions: dose 250-1000 nM, time 7.0 day
NCI-H460 [14] = assay: Inhibition of mitochondrial complex I NADH-ubiquinone oxidoreductase in human NCI-H460 cells assessed as reduction in oxygen consumption rate at 1 uM incubated for 12 hrs in presence of medium supplemented with malate by seahorse XF96 metabolic flux analyzer; format: cell-based
NCI-H460 [15] = assay: Inhibition of mitochondrial complex I NADH-ubiquinone oxidoreductase in human NCI-H460 cells assessed as reduction in oxygen consumption rate at 1 uM incubated for 12 hrs in presence of medium supplemented with succinate by seahorse XF96 metabolic flux analyzer; format: cell-based

## Cc1c(C(=O)N2CCN(C)CC2)nnn1Cc1ccc(C(=O)Nc2ccc(C(F)(F)F)cc2)nc1
NCI-H460 [1]
  inhibition: -1.2%
NCI-H460 [2]
  inhibition: 11.5%

## Cc1c(C(=O)N2CCN(Cc3ccc(OCC(F)(F)F)cc3)CC2)nnn1Cc1ccc(C(=O)Nc2ccc(Br)cc2)nc1
NCI-H460 [3]
  inhibition: 20%
NCI-H460 [4]
  IC50: 5.5 nM
NCI-H358 [5]
  IC50: 450 nM
NCI-H460 [6]
  inhibition: 62.6%
NCI-H460 [1]
  inhibition: 22.5%
NCI-H460 [7]
  inhibition: 33.7%
NCI-H460 [2]
  inhibition: 66%

## Cc1ccc(NC(=O)c2ccc(Cn3nnc(C(=O)N4CCN(Cc5ccc(OCC(F)(F)F)cc5)CC4)c3C)cn2)cc1
NCI-H460 [2]
  inhibition: 47.9%

## Cc1nnn(Cc2ccc(C(=O)Nc3ccc(Br)cc3)nc2)c1C(=O)N1CCN(Cc2ccc(OCC(F)(F)F)cc2)CC1
NCI-H460 [2]
  inhibition: 7.7%

## Cc1c(C(=O)N2CCN(Cc3ccccc3)CC2)nnn1Cc1ccc(C(=O)Nc2ccc(C(F)(F)F)cc2)nc1
NCI-H460 [2]
  inhibition: 10.4%

## Cc1c(C(=O)N2CCN(C(=O)c3ccc(OC(F)(F)F)cc3)CC2)nnn1Cc1ccc(C(=O)Nc2ccc(C(F)(F)F)cc2)nc1
NCI-H460 [2]
  inhibition: 43.8%

## CCNC(=O)c1ccc(Cn2nnc(C(=O)N3CCN(Cc4ccc(OCC(F)(F)F)cc4)CC3)c2C)cn1
NCI-H460 [2]
  inhibition: 36.3%

## Cc1c(C(=O)N2CCN(Cc3ccc(OCC(F)(F)F)cc3)CC2)nnn1Cc1ccc(C(=O)Nc2ccc(F)cc2)nc1
NCI-H460 [3]
  inhibition: 26.6%
NCI-H460 [4]
  IC50: 11.7 nM
NCI-H358 [5]
  IC50: > 1000 nM
NCI-H460 [6]
  inhibition: 72.5%
NCI-H460 [1]
  inhibition: 9.4%
NCI-H460 [7]
  inhibition: 2.6%
NCI-H460 [2]
  inhibition: 54.2%

## O=C(Nc1ccc(C(F)(F)F)cc1)c1ccc(Cn2cc(C(=O)N3CCN(Cc4ccc(OCC(F)(F)F)cc4)CC3)nn2)cn1
NCI-H460 [3]
  inhibition: -2%
NCI-H460 [4]
  IC50: 10.6 nM
NCI-H358 [5]
  IC50: 588 nM
NCI-H460 [6]
  inhibition: 65.7%
NCI-H460 [1]
  inhibition: 7.4%
NCI-H460 [7]
  inhibition: 26%
NCI-H460 [2]
  inhibition: 52%

## COc1ccc(NC(=O)c2ccc(Cn3nnc(C(=O)N4CCN(Cc5ccc(OCC(F)(F)F)cc5)CC4)c3C)cn2)cc1
NCI-H460 [2]
  inhibition: 49.2%

## Cc1c(C(=O)N2CCN(Cc3ccc(OCC(F)(F)F)cc3)CC2)nnn1Cc1ccc(C(=O)Nc2ccc3ccccc3c2)nc1
NCI-H460 [3]
  inhibition: 3.9%
NCI-H460 [4]
  IC50: 25.6 nM
NCI-H358 [5]
  IC50: > 1000 nM
NCI-H460 [6]
  inhibition: 57.9%
NCI-H460 [1]
  inhibition: 7%
NCI-H460 [7]
  inhibition: 11%
NCI-H460 [2]
  inhibition: 52.3%

## Cc1nnn(Cc2ccc(C(=O)Nc3ccc(C(F)(F)F)cc3)nc2)c1C(=O)N1CCN(Cc2ccc(OCC(F)(F)F)cc2)CC1
NCI-H460 [2]
  inhibition: 15.7%

## Cc1ccc(CN2CCN(C(=O)c3nnn(Cc4ccc(C(=O)Nc5ccc(C(F)(F)F)cc5)nc4)c3C)CC2)cc1
NCI-H460 [2]
  inhibition: 38.1%

## Cc1c(C(=O)N2CCN(Cc3ccc(C(C)C)cc3)CC2)nnn1Cc1ccc(C(=O)Nc2ccc(C(F)(F)F)cc2)nc1
NCI-H460 [2]
  inhibition: 36.7%

## Cc1c(C(=O)N2CCN(Cc3ccc(OCC(F)(F)F)cc3)CC2)nnn1Cc1ccc(C(=O)Nc2cccc(C(F)(F)F)c2)nc1
NCI-H358 [8]
  inhibition: inactive
NCI-H460 [3]
  inhibition: -0.1%
NCI-H460 [4]
  IC50: 257 nM
NCI-H460 [9]
  inhibition: Active
NCI-H358 [5]
  IC50: > 10000 nM
NCI-H460 [10]
  inhibition: Active
NCI-H460 [6]
  inhibition: 39.1%
NCI-H460 [1]
  inhibition: 1.2%
NCI-H460 [7]
  inhibition: 14%
NCI-H460 [11]
  inhibition: Dose-Dependent Effect
NCI-H460 [2]
  inhibition: 41.2%
NCI-H441 [12]
  IC50: 169 nM
NCI-H441 [13]
  inhibition: Dose-Dependent Effect
NCI-H460 [14]
  inhibition: Active
NCI-H460 [15]
  inhibition: inactive

## Cc1c(C(=O)N2CCN(Cc3ccc(OCC(F)(F)F)cc3)CC2)nnn1Cc1ccc(C(=O)NC2CCOCC2)nc1
NCI-H460 [2]
  inhibition: 10.5%

## Cc1c(C(=O)N2CCN(Cc3ccc(OCC(F)(F)F)cc3)CC2)nnn1Cc1ccc(C(=O)NCC(C)C)nc1
NCI-H460 [2]
  inhibition: 5.6%
